Data taken from patent EP0140270A2 (priority 1983, dated 1985).
Read-outs that look alike come from different tables or passages of the source.

Columns and labels:
Assay type in all cases: in vivo
[1] = test system: Pyricularia oryzae; settings: systemic; 40 ml preparation poured on soil of young rice plants; inoculated 7 days after treatment; evaluated 4 days after inoculation; compared with prior art (Zinkethylen-1,2-bis-dithiocarbamat)
[2] = test system: Pyricularia oryzae; settings: protective; young rice plants sprayed to dripping wet, then inoculated; evaluated 4 days after inoculation; compared with prior art (Zinkethylen-1,2-bis-dithiocarbamat)
[3] = test system: Phytophthora infestans; settings: curative; young tomato plants inoculated, sprayed after 7 hours incubation; evaluated 3 days after inoculation; compared with prior art (Zinkethylen-1,2-bis-dithiocarbamat)

Compound: C#CC(C)(C)C(C(=O)OC)C(=O)OC [Beispiel 1, 3,3-Dimethyl-2-methoxycarbcnyL-pent-4-insäuremethylester]
- Wirksamkeit (Krankheitsbefall) [1]: deutliche Überlegenheit in der Wirksamkeit gegenüber dem Stand der Technik

Compound: C#CC(C)(C)C(C(=O)O)C(=O)OCC (centres unmarked) [Beispiel 2, 3,3-Dimethyl-2-ethoxycarbonyl-pent-4-insäure]
- Wirksamkeit (Krankheitsbefall) [2]: deutliche Überlegenheit in der Wirksamkeit gegenüber dem Stand der Technik
- Wirksamkeit (Krankheitsbefall) [1]: deutliche Überlegenheit in der Wirksamkeit gegenüber dem Stand der Technik

Compound: C#CC(C)(C)C(C(N)=O)C(=O)OCC (centres unmarked) [Beispiel 3, 3,3-Dimethyl-2-etrcry-carbonyl-pent-4-insaureamid]
- Wirksamkeit [3]: deutliche Überlegenheit in der Wirksamkeit gegenüber dem Stand der Technik
- Wirksamkeit (Krankheitsbefall) [2]: deutliche Überlegenheit in der Wirksamkeit gegenüber dem Stand der Technik

Compound: CCOC(=O)CC(C)(C)C#CC(=O)OCCI [Beispiel 4, 3,3-DimethyL-5-iodethoxycarbonyl-pent-4-insäureethylester]
- Wirksamkeit (Krankheitsbefall) [2]: deutliche Überlegenheit in der Wirksamkeit gegenüber dem Stand der Technik
- Wirksamkeit (Krankheitsbefall) [1]: deutliche Überlegenheit in der Wirksamkeit gegenüber dem Stand der Technik

Compound: C#CC(C)(C)C(C(=O)OCC)C(=O)OCC [Beispiel 20, 3,3-Dimethyl-2-ethoxycarbonyl-pent-4-insäureethylester]
- Wirksamkeit (Krankheitsbefall) [1]: deutliche Überlegenheit in der Wirksamkeit gegenüber dem Stand der Technik
